Results as given in patent US7767659B2, “Synthesis of naturally occurring ecteinascidins and related compounds” (Pharma Mar, S.A., priority 2002, dated 2010).
Where two headings read alike, the source gives them in different places.

Experiments:
LNCaP = experiment: Inhibition of cells growth by colorimetric assay (SRB); details: Homo sapiens, LNCaP, 48 h
Method: (§1) This form of the assay employs 96 well cell culture microplates of 9 mm diameter (Faircloth, 1988; Mosmann, 1983). Most of the cell lines are obtained from American Type Culture Collection (ATCC) derived from different human cancer types.
(§2) Cells are maintained in RPMI 1640 10% FBS, supplemented with 0.1 g/l penicillin and 0.1 g/l streptomycin sulfate and then incubated at 37° C., 5% CO2 and 98% humidity. For the experiments, cells were harvested from subconfluent cultures using trypsin and resuspended in fresh medium before plating.
(§3) Cells are seeded in 96 well microtiter plates, at 5×10^3 cells per well in aliquots of 195 μl medium, and they are allowed to attach to the plate surface by growing in drug free medium for 18 hours. Afterward, samples are added in aliquots of 5 μl in a ranging from 10 to 10^−8 μg/ml, dissolved in DMSO/EtOH/PBS (0.5:0.5:99). After 48 hours exposure, the antitumor effect are measured by the SRB methodology: cells are fixed by adding 50 μl of cold 50% (wt/vol) trichloroacetic acid (TCA) and incubating for 60 minutes at 4° C. Plates are washed with deionized water and dried. One hundred μl of SRB solution (0.4% wt/vol in 1% acetic acid) is added to each microtiter well and incubated for 10 minutes at room temperature. Unbound SRB is removed by washing with 1% acetic acid. Plates are air dried and bound stain is solubilzed with Tris buffer. Optical densities are read on a automated spectrophotometric plate reader at a single wavelength of 490 nm.
(§4) The values for mean +/− SD of data from triplicate wells are calculated. Some parameters for cellular responses can be calculated: GI=growth inhibition, TGI=total growth inhibition (cytostatic effect) and LC=cell killing (cytotoxic effect).

HeLa-APL = experiment: as above; details: Homo sapiens, 48 h; for GI50: read-out: HELA-APL GI50; for CC50: read-out: HELA-APL LC50; for IC (TGI): read-out: HELA-APL TGI
Method: as §1, §2, §3, §4

PANC-1 = experiment: as above; details: Homo sapiens, PANC-1, 48 h; for GI50: read-out: PANC-1 GI50; for CC50: read-out: PANC-1 LC50; for IC (TGI): read-out: PANC-1 TGI
Method: as §1, §2, §3, §4

IGROV-1 = experiment: as above; details: Homo sapiens, IGROV-1, 48 h; for GI50: read-out: IGROV GI50; for CC50: read-out: IGROV LC50; for IC (TGI): read-out: IGROV TGI
Method: as §1, §2, §3, §4

SK-MEL-28 = experiment: as above; details: Homo sapiens, SK-MEL-28, 48 h
Method: as §1, §2, §3, §4

LoVo-Dox = experiment: as above; details: Homo sapiens, 48 h; for GI50: read-out: LOVO-DOX GI50; for CC50: read-out: LOVO-DOX LC50; for IC (TGI): read-out: LOVO-DOX TGI
Method: as §1, §2, §3, §4

DU-145 = experiment: as above; details: Homo sapiens, DU-145, 48 h
Method: as §1, §2, §3, §4

HeLa = experiment: as above; details: Homo sapiens, HeLa, 48 h; for GI50: read-out: HELA GI50; for CC50: read-out: HELA LC50; for IC (TGI): read-out: HELA TGI
Method: as §1, §2, §3, §4

K-562 = experiment: as above; details: Homo sapiens, K562, 48 h; for GI50: read-out: K562 GI50; for CC50: read-out: K562 LC50; for IC (TGI): read-out: K562 TGI
Method: as §1, §2, §3, §4

IGROV-ET = experiment: as above; details: Homo sapiens, 48 h
Method: as §1, §2, §3, §4

HT-29 = experiment: cells; details: Homo sapiens, HT-29, 48 h
Method: as §1, §2, §3, §4

LoVo = experiment: cells; details: Homo sapiens, LoVo, 48 h; for GI50: read-out: LOVO GI50; for CC50: read-out: LOVO LC50; for IC (TGI): read-out: LOVO TGI
Method: as §1, §2, §3, §4

A-549 = experiment: cells; details: Homo sapiens, A549, 48 h
Method: as §1, §2, §3, §4

SK-BR-3 = experiment: Inhibition of cells growth by colorimetric assay (SRB); details: Homo sapiens, SK-BR-3, 48 h
Method: as §1, §2, §3, §4

Structure (SMILES) | GI50 (HeLa-APL) | CC50 (HeLa-APL) | IC (TGI) (HeLa-APL) | GI50 (PANC-1) | CC50 (PANC-1) | IC (TGI) (PANC-1) | GI50 (IGROV-1) | CC50 (IGROV-1) | IC (TGI) (IGROV-1) | GI50 (LoVo-Dox) | CC50 (LoVo-Dox) | IC (TGI) (LoVo-Dox) | GI50 (HeLa) | CC50 (HeLa) | IC (TGI) (HeLa) | GI50 (K-562) | CC50 (K-562) | IC (TGI) (K-562) | GI50 (LoVo) | CC50 (LoVo) | other results
COc1c(C)cc2c(c1O)[C@H]1N[C@@H](C2)[C@H](C#N)N2C1[C@@H]1SCC(=O)C(=O)OC[C@H]2c2c3c(c(C)c(OC(C)=O)c21)OCO3 (stereo partly drawn) [compound 42] | 34.6 nM | 130 nM | 0.067 µM | 39 nM | 5.27 µM | 0.0115 µM | 28.6 nM | 153 nM | 0.0663 µM | 515 nM | 16.5 µM | 1.44 µM | 28.1 nM | 139 nM | 0.0625 µM | 17.8 nM | 694 nM | 0.0596 µM | 37.7 nM | 2930 nM | GI50 (LNCaP; read-out: LNCAP GI50): 5.96 nM; CC50 (LNCaP; read-out: LNCAP LC50): 63.7 nM; IC (TGI) (LNCaP; read-out: LNCAP TGI): 0.0224 µM; GI50 (SK-MEL-28; read-out: MEL-28 GI50): 30.1 nM; CC50 (SK-MEL-28; read-out: MEL-28 LC50): 107 nM; IC (TGI) (SK-MEL-28; read-out: MEL-28 TGI): 0.0568 µM; GI50 (DU-145; read-out: DU145 GI50): 37.4 nM; CC50 (DU-145; read-out: DU145 LC50): 247 nM; IC (TGI) (DU-145; read-out: DU145 TGI): 0.0825 µM; GI50 (IGROV-ET; read-out: IGROV-ET GI50): 280 nM; CC50 (IGROV-ET; read-out: IGROV-ET LC50): 16.5 µM; IC (TGI) (IGROV-ET; read-out: IGROV-ET TGI): 1.02 µM; GI50 (HT-29; read-out: HT29 GI50): 39.7 nM; CC50 (HT-29; read-out: HT29 LC50): 16.5 µM; IC (TGI) (HT-29; read-out: HT29 TGI): 0.131 µM; IC (TGI) (LoVo): 0.0726 µM; GI50 (A-549; read-out: A549 GI50): 57.4 nM; CC50 (A-549; read-out: A549 LC50): 2370 nM; IC (TGI) (A-549; read-out: A549 TGI): 0.147 µM
CCC(=O)NC1CS[C@@H]2c3c(OC(C)=O)c(C)c4c(c3[C@H](COC1=O)N1C2[C@@H]2N[C@@H](Cc3cc(C)c(OC)c(O)c32)[C@@H]1C#N)OCO4 (stereo partly drawn) [compound 33] | 5.24 nM | 115 nM | 0.0191 µM | 19.9 nM | 4.51 µM | 0.122 µM | 98.5 nM | 1580 nM | 0.426 µM | 367 nM | 5.9 µM | 0.94 µM | 5.02 nM | 96.9 nM | 0.0161 µM | 5.49 nM | 2830 nM | 0.159 µM | 19.9 nM | 145 nM | GI50 (SK-BR-3; read-out: SK-BR3 GI50): 4.83 nM; CC50 (SK-BR-3; read-out: SK-BR3 LC50): 385 nM; IC (TGI) (SK-BR-3; read-out: SK-BR3 TGI): 0.0139 µM; GI50 (LNCaP; read-out: GI50 LNCAP): 2.86 nM; CC50 (LNCaP; read-out: LC50 LNCAP): 11.1 nM; IC (TGI) (LNCaP; read-out: TGI LNCAP): 0.00564 µM; GI50 (SK-MEL-28; read-out: GI50 MEL-28): 12.8 nM; CC50 (SK-MEL-28; read-out: LC50 MEL-28): 97.9 nM; IC (TGI) (SK-MEL-28; read-out: TGI MEL-28): 0.0367 µM; GI50 (DU-145; read-out: GI50 DU145): 8.02 nM; CC50 (DU-145; read-out: LC50 DU145): 4410 nM; IC (TGI) (DU-145; read-out: TGI DU145): 0.0156 µM; GI50 (HT-29; read-out: GI50 HT29): 17.3 nM; CC50 (HT-29; read-out: LC50 HT29): 9.81 µM; IC (TGI) (HT-29; read-out: TGI HT29): 0.271 µM; IC (TGI) (LoVo): 0.0536 µM; GI50 (A-549; read-out: GI50 A549): 26.2 nM; CC50 (A-549; read-out: LC50 A549): 149 nM; IC (TGI) (A-549; read-out: TGI A549): 0.0624 µM
